Results published in PubChem BioAssay AID248 (DTP/NCI, 2004).
Several values for one entry are separate records, joined by “and”; a condition that tells them apart may be missing. Equal entries are not always repeated. Inconclusive results and toxic doses are left out. No stated cut-off is given here; in the data, active means T/C of 150% or more; inactive means T/C below 125%.

Test system: L1210 leukemia ip in BDF1 mice, survival T/C
Assay: NCI In Vivo Anticancer Drug Screen. Data for tumor model L1210 Leukemia (intraperitoneal) in B6D2F1 (BDF1) mice
Details: endpoint: mean survival time, higher = longer survival
In short: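 In this screen, tumor-bearing mice given compound are compared to those given vehicle, and their survival values are reported as a treated-to-control quotient.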

[1] = dose: 100.0 mg/kg/injection, schedule: Q01DX009 (ip), vehicle: Klucel (hydroxypropylcellulose) (HPC)
[2] = dose: 100.0 mg/kg/injection, schedule: Q04DX003 (ip), vehicle: Klucel (hydroxypropylcellulose) (HPC)
[3] = dose: 200.0 mg/kg/injection, schedule: Q01DX009 (ip), vehicle: Klucel (hydroxypropylcellulose) (HPC)
[4] = dose: 200.0 mg/kg/injection, schedule: Q04DX003 (ip), vehicle: Klucel (hydroxypropylcellulose) (HPC)
[5] = dose: 400.0 mg/kg/injection, schedule: Q01DX009 (ip), vehicle: Klucel (hydroxypropylcellulose) (HPC)
[6] = dose: 400.0 mg/kg/injection, schedule: Q04DX003 (ip), vehicle: Klucel (hydroxypropylcellulose) (HPC)
[7] = dose: 100.0 mg/kg/injection, schedule: Q04DX003 (ip), vehicle: saline with Tween-80
[8] = dose: 200.0 mg/kg/injection, schedule: Q04DX003 (ip), vehicle: saline with Tween-80
[9] = dose: 400.0 mg/kg/injection, schedule: Q04DX003 (ip), vehicle: saline with Tween-80
[10] = dose: 100.0 mg/kg/injection, schedule: Q01DX009 (ip), vehicle: saline with Tween-80
[11] = dose: 200.0 mg/kg/injection, schedule: Q01DX009 (ip), vehicle: saline with Tween-80
[12] = dose: 400.0 mg/kg/injection, schedule: Q01DX009 (ip), vehicle: saline with Tween-80
[13] = dose: 100.0 mg/kg/injection, schedule: Q01DX001 (ip), vehicle: saline
[14] = dose: 200.0 mg/kg/injection, schedule: Q01DX001 (ip), vehicle: saline
[15] = dose: 400.0 mg/kg/injection, schedule: Q01DX001 (ip), vehicle: saline
[16] = dose: 100.0 mg/kg/injection, schedule: Q04DX002 (ip), vehicle: Klucel (hydroxypropylcellulose) (HPC)
[17] = dose: 200.0 mg/kg/injection, schedule: Q04DX002 (ip), vehicle: Klucel (hydroxypropylcellulose) (HPC)
[18] = dose: 50.0 mg/kg/injection, schedule: Q01DX001 (ip), vehicle: saline

Measured: T/C

COC(=O)c1ccccc1NC(=S)NC(=O)c1ccc(OC)cc1
inactive: [1] 93 % of control | [2] 91 % of control | [3] 98 % of control | [4] 104 % of control | [5] 95 % of control | [6] 96 % of control

CCOC(=O)c1sc(SSc2nc(C)c(C(=O)OCC)s2)nc1C
inactive: [7] 102 % of control | [8] 94 % of control | [9] 91 % of control

CC(=O)C(c1ccccc1)(c1ccccc1)c1ccccc1
inactive: [7] 96 % of control | [8] 93 % of control | [9] 91 % of control

CCOC(=O)CCCCSCCCCC(=O)OCC
inactive: [10] 91 % of control | [11] 101 % of control | [12] 102 % of control

Nc1nc(=S)c2ncn(C3OCC(O)C(O)C3O)c2[nH]1 (stereo not drawn)
inactive: dose: 5.0 mg/kg/injection, schedule: Q01DX001 (ip), vehicle: saline 101 % of control | dose: 10.0 mg/kg/injection, schedule: Q01DX001 (ip), vehicle: saline 95 % of control | dose: 12.5 mg/kg/injection, schedule: Q01DX009 (ip), vehicle: saline 98 % of control | dose: 20.0 mg/kg/injection, schedule: Q01DX001 (ip), vehicle: saline 96 % of control | dose: 25.0 mg/kg/injection, schedule: Q01DX009 (ip), vehicle: saline 97 % of control | dose: 40.0 mg/kg/injection, schedule: Q01DX001 (ip), vehicle: saline 101 % of control | dose: 50.0 mg/kg/injection, schedule: Q01DX009 (ip), vehicle: saline 98 % of control | dose: 80.0 mg/kg/injection, schedule: Q01DX001 (ip), vehicle: saline 96 % of control | [13] 98 % of control | dose: 100.0 mg/kg/injection, schedule: Q01DX009 (ip), vehicle: saline 101 % of control | [14] 102 % of control | [15] 102 % of control

CC(CCc1cccc2ccccc12)C(=O)O (stereo not drawn)
inactive: [2] 103 % of control | [4] 100 % of control | [6] 105 % of control

O=[N+]([O-])c1cccc(C=Nc2cc([N+](=O)[O-])ccc2O)c1
inactive: [1] 88 % of control | [3] 93 % of control

Cc1[nH]c(=O)n(C)c(=O)c1C
inactive: dose: 100.0 mg/kg/injection, schedule: Q01DX001 (ip), vehicle: Klucel (hydroxypropylcellulose) (HPC) 109 % of control | dose: 200.0 mg/kg/injection, schedule: Q01DX001 (ip), vehicle: Klucel (hydroxypropylcellulose) (HPC) 106 % of control | dose: 400.0 mg/kg/injection, schedule: Q01DX001 (ip), vehicle: Klucel (hydroxypropylcellulose) (HPC) 104 % of control

CC12CCC(=O)C=C1CCCC2=O (stereo not drawn)
inactive: dose: 100.0 mg/kg/injection, schedule: Q04DX003 (ip), vehicle: saline 95 % of control | dose: 200.0 mg/kg/injection, schedule: Q04DX003 (ip), vehicle: saline 101 % of control

O=C(COc1ccc(Cl)c(Cl)c1)NCCc1ccncc1
inactive: dose: 50.0 mg/kg/injection, schedule: Q04DX002 (ip), vehicle: Klucel (hydroxypropylcellulose) (HPC) 103 % of control | [16] 118 % of control | [17] 111 % of control

CN1C2CNC(=O)CC1C1CCC2C1 (stereo not drawn)
inactive: dose: 25.0 mg/kg/injection, schedule: Q04DX002 (ip), vehicle: saline 94 % of control | dose: 50.0 mg/kg/injection, schedule: Q04DX002 (ip), vehicle: saline 102 % of control | dose: 75.0 mg/kg/injection, schedule: Q01DX001 (ip), vehicle: carboxymethylcellulose (CMC) 106 % of control

O=S(=O)(Nc1ccccc1)c1ccccc1C=C(c1ccccc1)c1ccccc1
inactive: dose: 100.0 mg/kg/injection, schedule: Q01DX001 (ip), vehicle: steriod suspending solution 105 % of control | dose: 200.0 mg/kg/injection, schedule: Q01DX001 (ip), vehicle: steriod suspending solution 86 % of control | dose: 400.0 mg/kg/injection, schedule: Q01DX001 (ip), vehicle: steriod suspending solution 97 % of control

O=C1c2ccccc2C(=O)N1OCCCCON1C(=O)c2ccccc2C1=O
inactive: [18] 100 % of control | [13] 106 % of control | [14] 106 % of control | [15] 102 % of control

CCC(C)C(CN)(CCCCN(C)C)c1cccc2ccccc12 (stereo not drawn)
inactive: [7] 97 % of control | [8] 100 % of control

CCOC(=O)c1cnc(SC)nc1NNc1nc(SC)ncc1C(=O)OCC
inactive: [2] 93 % of control | [4] 90 % of control | [6] 93 % of control

CC1CCC(Oc2nc3c(c(=O)n(C)c(=O)n3C)n2C)CC1 (stereo not drawn)
inactive: dose: 50.0 mg/kg/injection, schedule: Q01DX001 (ip), vehicle: other 104 % of control and 100 % of control | dose: 100.0 mg/kg/injection, schedule: Q01DX001 (ip), vehicle: other 101 % of control and 103 % of control | dose: 200.0 mg/kg/injection, schedule: Q01DX001 (ip), vehicle: other 101 % of control and 92 % of control | dose: 400.0 mg/kg/injection, schedule: Q01DX001 (ip), vehicle: other 95 % of control

N=C(N)SCCCCCSC(=N)N
inactive: [13] 124 % of control | dose: 100.0 mg/kg/injection, schedule: Q04DX002 (ip), vehicle: saline 110 % of control | [14] 109 % of control | dose: 200.0 mg/kg/injection, schedule: Q04DX002 (ip), vehicle: saline 91 % of control

O=C(O)CSCc1cccc2ccccc12
inactive: dose: 100.0 mg/kg/injection, schedule: Q01DX001 (ip), vehicle: carboxymethylcellulose (CMC) 91 % of control | [2] 98 % of control | dose: 200.0 mg/kg/injection, schedule: Q01DX001 (ip), vehicle: carboxymethylcellulose (CMC) 93 % of control | [4] 94 % of control | dose: 400.0 mg/kg/injection, schedule: Q01DX001 (ip), vehicle: carboxymethylcellulose (CMC) 91 % of control | [6] 105 % of control

COc1cc(N)c2c(c1O)CN(C)CC2
inactive: dose: 75.0 mg/kg/injection, schedule: Q01DX001 (ip), vehicle: saline 95 % of control | dose: 150.0 mg/kg/injection, schedule: Q01DX001 (ip), vehicle: saline 100 % of control | dose: 300.0 mg/kg/injection, schedule: Q01DX001 (ip), vehicle: saline 86 % of control

CC(=O)N(C)c1ccc(NC(=O)Nc2ccc(C)cc2[N+](=O)[O-])cc1
inactive: [2] 94 % of control | [4] 94 % of control | [6] 94 % of control

CCOc1ccccc1NC(=O)C(Br)C(Br)C(=O)O (stereo not drawn)
inactive: [10] 96 % of control | [7] 100 % of control | [11] 97 % of control | [8] 95 % of control | [12] 96 % of control | [9] 101 % of control

c1ccc2c[n+](CCc3c[nH]c4ccccc34)ccc2c1
inactive: [16] 100 % of control | [2] 96 % of control | [4] 104 % of control

O=C(Nc1ccc(Br)cc1)Oc1ccc(Nc2ccccc2)cc1
inactive: [1] 98 % of control | [3] 89 % of control | [5] 98 % of control

Cc1c([N+](=O)[O-])sc2ccccc12
inactive: [13] 97 % of control | [14] 97 % of control | [15] 90 % of control

Cc1cc(N(CCOS(C)(=O)=O)CCOS(C)(=O)=O)ccc1C=Nc1ccc(-c2csc(Cc3ccccc3)n2)cc1
inactive: dose: 6.25 mg/kg/injection, schedule: Q01DX009 (ip), vehicle: Klucel (hydroxypropylcellulose) (HPC) 105 % of control | dose: 12.5 mg/kg/injection, schedule: Q01DX009 (ip), vehicle: Klucel (hydroxypropylcellulose) (HPC) 110 % of control | dose: 25.0 mg/kg/injection, schedule: Q01DX009 (ip), vehicle: Klucel (hydroxypropylcellulose) (HPC) 122 % of control

CCNC(=O)Nc1ccc(C)cc1C
inactive: [1] 94 % of control | [2] 96 % of control | [3] 103 % of control | [4] 96 % of control | [5] 105 % of control | [6] 95 % of control

Oc1cccc2c(NC(=S)Nc3ccccc3)cccc12
inactive: [1] 101 % of control | [16] 96 % of control | [3] 101 % of control | [17] 104 % of control | dose: 400.0 mg/kg/injection, schedule: Q04DX002 (ip), vehicle: Klucel (hydroxypropylcellulose) (HPC) 100 % of control

CC(=O)Nc1ccc(Cc2ccc3[nH]c(C)cc(=O)c3c2)cc1
inactive: [13] 109 % of control | [14] 98 % of control | [15] 93 % of control

ClCc1cccc(CCl)c1
inactive: [18] 95 % of control | dose: 50.0 mg/kg/injection, schedule: Q01DX009 (ip), vehicle: saline sonified 103 % of control | [13] 95 % of control | dose: 100.0 mg/kg/injection, schedule: Q01DX009 (ip), vehicle: saline sonified 102 % of control | [14] 97 % of control | dose: 200.0 mg/kg/injection, schedule: Q01DX009 (ip), vehicle: saline sonified 103 % of control
